Key:
Assay in all cases: selective drug sensitivity score (sDSS, relative to normal bone marrow) (sDSS (score)); higher = more potent and effective on the cell line relative to normal bone marrow cells
Conditions in all cases: 72 h
TMD5 = tested on: TMD5
KASUMI-9 = tested on: KASUMI-9
MOLT-16 = tested on: MOLT-16
ALL-PO = tested on: ALL-PO
MHH-CALL-4 = tested on: MHH-CALL-4
MN-60 = tested on: MN-60
COG-LL-355h = tested on: COG-LL-355h
HAL-01 = tested on: HAL-01
JURKAT = tested on: JURKAT
697 = tested on: 697
P30-OHKUBO = tested on: P30-OHKUBO
COG-LL-317 = tested on: COG-LL-317
SUP-B15 = tested on: SUP-B15
KOPN-8 = tested on: KOPN-8
LC4-1 = tested on: LC4-1
TANOUE = tested on: TANOUE
SEM cells = tested on: SEM cells
COG-LL-319h = tested on: COG-LL-319h
PEER = tested on: PEER
CCRF-HSB2 = tested on: CCRF-HSB2
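Also: ALL cell lines in 384-well plates, five doses spanning 10,000-fold, each plate scaled between vehicle and 100 µmol/L benzalkonium chloride controls, sDSS an adapted area-under-curve metric.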

| Compound | selective drug sensitivity score (TMD5) | selective drug sensitivity score (KASUMI-9) | selective drug sensitivity score (MOLT-16) | selective drug sensitivity score (ALL-PO) | selective drug sensitivity score (MHH-CALL-4) | selective drug sensitivity score (MN-60) | selective drug sensitivity score (COG-LL-355h) | selective drug sensitivity score (HAL-01) | selective drug sensitivity score (JURKAT) | selective drug sensitivity score 697 | selective drug sensitivity score (P30-OHKUBO) | selective drug sensitivity score (COG-LL-317) | selective drug sensitivity score (SUP-B15) | selective drug sensitivity score (KOPN-8) | selective drug sensitivity score (LC4-1) | selective drug sensitivity score (TANOUE) | selective drug sensitivity score (SEM cells) | selective drug sensitivity score (COG-LL-319h) | selective drug sensitivity score (PEER) | selective drug sensitivity score (CCRF-HSB2) |
| --- | --- | --- | --- | --- | --- | --- | --- | --- | --- | --- | --- | --- | --- | --- | --- | --- | --- | --- | --- | --- |
| CC#CC(=O)N1CC[C@@H](n2c(=O)n(-c3ccc(Oc4ccccc4)cc3)c3c(N)ncnc32)C1 [Tirabrutinib] (top concentration 1000 nM) | 1 | 0 | 0.9 | 0 | 1.5 | 0 | 0 | 6.5 | 0 | 0 | 0 | 0 | 14.7 | 4.1 | 0.7 | 0 | 1.1 | 3.7 | 0 | 0.8 |
| CC(C)C[C@@H](C(=O)N[C@H](C(=O)OC1CCCC1)c1ccccc1)[C@H](O)C(=O)NO [Tosedostat] (top concentration 10000 nM) | 0.46 | 2.56 | 10.4 | 6.96 | 1.26 | -2.44 | 11.4 | -3.84 | 2.16 | -1.54 | 4.96 | 14.9 | 11 | 10.8 | 2.26 | -5.24 | 0.86 | 3.96 | 0.06 | 3.16 |
| CS(=O)(=O)c1ccc(-c2cnc(N)c(C(=O)Nc3ccccc3)n2)cc1 [VE-821] (top concentration 10000 nM) | -0.66 | 0.84 | 7.94 | 2.64 | -0.66 | -0.66 | 5.64 | 4.54 | 1.64 | -0.66 | -0.16 | 12.7 | 6.94 | 8.74 | 4.64 | 0.64 | 2.44 | 11.2 | 0.54 | 4.44 |
| CNC(=O)c1ccccc1Nc1cc(Nc2ccc(N3CCOCC3)cc2OC)ncc1C(F)(F)F [VS-4718] (top concentration 10000 nM) | 6.8 | 2.1 | 6.1 | 14 | 6.4 | -3.4 | 1.3 | 8.7 | 1.1 | 0.7 | 0.4 | -0.8 | -3 | -3.1 | -3 | -5 | 7.9 | -5 | 3.6 | 3.5 |
